Counter-ions that a name gives are not always drawn. Like-named read-outs stand apart in the source and are kept apart here.
How the values were obtained:
[1] = Metabolic stability in human liver microsomes (in vitro t1/2); format: in vitro ADME; details: for half-life: human, human liver microsomes
Method: Human liver microsomes (20 mg/mL) were obtained from Xenotech, LLC (Lenexa, Kans.). β-nicotinamide adenine dinucleotide phosphate, reduced form (NADPH), magnesium chloride (MgCl2), and dimethyl sulfoxide (DMSO) were purchased from Sigma-Aldrich.
7.5 mM stock solutions of test compounds were prepared in DMSO. The 7.5 mM stock solutions were diluted to 12.5-50 μM in acetonitrile (ACN). The 20 mg/mL human liver microsomes were diluted to 0.625 mg/mL in 0.1 M potassium phosphate buffer, pH 7.4, containing 3 mM MgCl2. The diluted microsomes were added to wells of a 96-well deep-well polypropylene plate in triplicate. A 10 μL aliquot of the 12.5-50 μM test compound was added to the microsomes and the mixture was pre-warmed for 10 minutes. Reactions were initiated by addition of pre-warmed NADPH solution. The final reaction volume was 0.5 mL and contained 0.5 mg/mL human liver microsomes, 0.25-1.0 μM test compound, and 2 mM NADPH in 0.1 M potassium phosphate buffer, pH 7.4, and 3 mM MgCl2. The reaction mixtures were incubated at 37° C., and 50 μL aliquots were removed at 0, 5, 10, 20, and 30 minutes and added to shallow-well 96-well plates which contained 50 μL of ice-cold ACN with internal standard to stop the reactions. The plates were stored at 4° C. for 20 minutes after which 100 μL of water was added to the wells of the plate before centrifugation to pellet precipitated proteins. Supernatants were transferred to another 96-well plate and analyzed for amounts of parent remaining by LC-MS/MS using an Applied Bio-systems API 4000 mass spectrometer. The same procedure was followed for the non-deuterated counterpart of the compound of Formula B, Formula A, Formula I, Formula B-I, Formula C, or Formula E and the positive control, 7-ethoxycoumarin (1.0 μM). Testing was done in triplicate.
The in vitro t1/2s for test compounds were calculated from the slopes of the linear regression of % parent remaining (ln) vs incubation time relationship. in vitro t1/2=0.693/k k=−[slope of linear regression of % parent remaining(ln) vs incubation time]

[2] = intravenous, healthy male volunteers, cited from earlier work
[3] = relative to mibefradil; cited from earlier work
[4] = pH 7.4, Table 8a, 0.5 mg/mL HLM, 2 mM NADPH, 37° C., read-out: t1/2 Experiment 1
[5] = pH 7.4, Table 8a, 0.5 mg/mL HLM, 2 mM NADPH, 37° C., read-out: t1/2 Experiment 2
[6] = pH 7.4, Table 8a, average of Experiments 1 and 2, read-out: t1/2 Ave
[7] = pH 7.4, Table 8b, 0.5 mg/mL HLM, 2 mM NADPH, 37° C., read-out: t1/2 Experiment 1
[8] = pH 7.4, Table 8b, 0.5 mg/mL HLM, 2 mM NADPH, 37° C., read-out: t1/2 Experiment 2
[9] = pH 7.4, Table 8b, average of Experiments 1 and 2, read-out: t1/2 Ave

| Structure (SMILES) | half-life [1, 4] [min] | half-life [1, 5] [min] | half-life [1, 6] [min] | half-life [1, 7] [min] | half-life [1, 8] [min] | half-life [1, 9] [min] | other results |
| --- | --- | --- | --- | --- | --- | --- | --- |
| [2H]C1([2H])c2cc(F)ccc2[C@H](C(C)C)[C@](CCN(C)CCCc2nc3ccccc3[nH]2)(OC(=O)COC)C1([2H])[2H] [Compound 500, (1S,2S)-2-(2-((3-(1H-Benzo[d]imidazol-2-yl)propyl)(methyl)amino)ethyl)-3,3,4,4-tetradeutero-6-fluoro-1-isopropyl-1,2,3,4-tetrahydronaphthalen-2-yl 2-methoxyacetate] | 4.61 | 4.98 | 4.79 |  |  |  | half life (t1/2) shorter than that of mibefradil ([1]; HLM, from Table 8a): approximately 44% |
| [2H]C([2H])([2H])N(CC[C@]1(OC(=O)COC)[C@@H](C(C)C)c2ccc(F)cc2C([2H])([2H])C1([2H])[2H])C([2H])([2H])C([2H])([2H])C([2H])([2H])c1nc2ccccc2[nH]1 [Compound 703a, (1S,2S)-2-(2-((3-(1H-Benzo[d]imidazol-2-yl)-1,1,2,2,3,3-hexadeuteropropyl)(trideuteromethyl)-amino)ethyl)-3,3,4,4-tetradeutero-6-fluoro-1-isopropyl-1,2,3,4-tetrahydronaphthalen-2-yl 2-methoxyacetate] | 7.17 | 7.72 | 7.45 |  |  |  |  |
| [2H]C1([2H])c2cc(F)ccc2[C@H](C(C)C)[C@](CCN(C)CCCc2nc3ccccc3[nH]2)(OC(=O)C2CC2)C1([2H])[2H] [Compound 704a, (1S,2S)-2-(2-((3-(1H-Benzo[d]imidazol-2-yl)propyl)(methyl)amino)ethyl)-3,3,4,4-tetradeutero-6-fluoro-1-isopropyl-1,2,3,4-tetrahydronaphthalen-2-yl cyclopropanecarboxylate] |  |  |  | 6.16 | 6.6 | 6.38 |  |
| [2H]C([2H])([2H])N(CC[C@]1(OC(=O)C2CC2)[C@@H](C(C)C)c2ccc(F)cc2C([2H])([2H])C1([2H])[2H])C([2H])([2H])C([2H])([2H])C([2H])([2H])c1nc2ccccc2[nH]1 [Compound 707a, (1S,2S)-2-(2-((3-(1H-Benzo[d]imidazol-2-yl)-1,1,2,2,3,3-hexadeuteropropyl)(trideuteromethyl)-amino)ethyl)-3,3,4,4-tetradeutero-6-fluoro-1-isopropyl-1,2,3,4-tetrahydronaphthalen-2-yl cyclopropanecarboxylate] |  |  |  | 7.27 | 7.03 | 7.15 |  |
| COCC(=O)O[C@]1(CCN(C)CCCc2nc3ccccc3[nH]2)CCc2cc(F)ccc2[C@@H]1C(C)C [Mibefradil, (1S,2S)-2-(2-((3-(2-benzimidazolylpropyl)methylamino)ethyl)-6-fluoro-1,2,3,4-tetrahydro-1-isopropyl-2-naphthyl methoxyacetatedihydrochloride, reference compound] | 8.49 | 8.55 | 8.52 |  |  |  | bilirubin ([2]; in all cases): dose-dependent increase; plasma haptoglobin ([2]; in two cases): severe decrease |
| CC(C)[C@H]1c2ccc(F)cc2CC[C@@]1(CCN(C)CCCc1nc2ccccc2[nH]1)OC(=O)C1CC1 [NNC 55-0396, reference compound] |  |  |  | 6.58 | 6.55 | 6.56 |  |
| CC(C)C1c2ccc(F)cc2CCC1(O)CCN(C)CCCc1nc2ccccc2[nH]1 (stereo not shown) [Ro 40-5966] |  |  |  |  |  |  | pharmacologic effect of the metabolite as share of that of the parent [3]: approximately 10% |
